This note sets out measurements from US9399626B2, “2-thiopyrimidinones” (Pfizer Inc., priority 2011, dated 2016).

The structures appear in SMILES notation. Where a name gives a salt, the structure may show the parent alone.

The first test deals with T1, MPO (purified from human polynuclear leukocytes) (Homo sapiens, UniProt P05164).
T1 construct: purified from human polynuclear leukocytes; purchased Calbiochem/EMD Biosciences; host or cells: human polynuclear leukocytes (natural source)
T1 sequence (P05164 279-745 limits assumed): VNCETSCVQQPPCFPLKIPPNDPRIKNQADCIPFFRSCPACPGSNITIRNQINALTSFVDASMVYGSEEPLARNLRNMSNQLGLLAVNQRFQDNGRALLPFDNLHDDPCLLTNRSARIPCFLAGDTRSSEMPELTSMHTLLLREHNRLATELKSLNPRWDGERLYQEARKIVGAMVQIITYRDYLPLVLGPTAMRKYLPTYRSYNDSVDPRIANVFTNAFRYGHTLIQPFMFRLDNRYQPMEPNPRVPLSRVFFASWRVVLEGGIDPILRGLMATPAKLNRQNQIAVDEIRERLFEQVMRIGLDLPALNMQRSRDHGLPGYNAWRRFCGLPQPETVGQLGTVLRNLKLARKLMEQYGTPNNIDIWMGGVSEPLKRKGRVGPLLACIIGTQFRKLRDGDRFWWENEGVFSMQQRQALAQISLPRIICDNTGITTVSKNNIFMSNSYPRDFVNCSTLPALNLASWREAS
T1 sequence (P05164 165-273 limits assumed): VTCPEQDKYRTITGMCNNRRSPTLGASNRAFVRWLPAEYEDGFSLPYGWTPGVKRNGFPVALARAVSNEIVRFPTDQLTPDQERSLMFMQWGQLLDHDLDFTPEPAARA
The test is described as follows: MPO Amplex Red Activity Assay. It counts as biochemical. To be noted: Table 1, 2 μM H2O2, pH 7.4. In short, it runs like this:
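Potency is given as kinact/KI: kobs values from 600 s progress curves, minus the uninhibited rate, are fit against inhibitor concentration. Reactions use 2 μM H2O2, 30 μM Amplex Red, pH 7.4 phosphate buffer with NaCl, DTPA and 2% DMSO, started with […] human MPO. Readout is resorufin fluorescence, catalase background subtracted.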
For the compound `COCCn1c(-c2ccn[nH]2)cc(=O)[nH]c1=S` [Example 278, 1-(2-methoxyethyl)-6-(1H-pyrazol-5-yl)-2-thioxo-2,3-dihydropyrimidin-4(1H)-one], the “MPO kinact/Ki” value is recorded as 1560 1/s per M. For the compound `NCCn1c(-c2cccc(Br)c2)cc(=O)[nH]c1=S` [Example 183, 1-(2-aminoethyl)-6-(3-bromophenyl)-2-thioxo-2,3-dihydropyrimidin-4(1H)-one hydrochloride], the “MPO kinact/Ki” value was 4830 1/s per M. `COCCn1c(-c2ccccc2OC(C)C)cc(=O)[nH]c1=S` [Example 328, 6-(2-isopropoxyphenyl)-1-(2-methoxyethyl)-2-thioxo-2,3-dihydropyrimidin-4(1H)-one]: the “MPO kinact/Ki” value is 4370 1/s per M. For the compound `COc1ccc(-c2cc(=O)[nH]c(=S)n2CCOC(C)=O)c(OC)c1` [Example 222, 2-[6-(2,4-dimethoxyphenyl)-4-oxo-2-thioxo-3,4-dihydropyrimidin-1(2H)-yl]ethyl acetate], the “MPO kinact/Ki” value is 9820 1/s per M. Same read-out and setting: under `NCCn1c(-c2csc3ccccc23)cc(=O)[nH]c1=S` [Example 36, 1-(2-aminoethyl)-6-(1-benzothien-3-yl)-2-thioxo-2,3-dihydropyrimidin-4(1H)-one hydrochloride] stands 5980 1/s per M. With `COc1ccc(C)cc1-c1cc(=O)[nH]c(=S)n1CC(N)=O` [Example 164, 2-[6-(2-methoxy-5-methylphenyl)-4-oxo-2-thioxo-3,4-dihydropyrimidin-1(2H)-yl]acetamide], the “MPO kinact/Ki” value is given as 14900 1/s per M. Take `COCCn1c(-c2ccc(OC)nc2OC)cc(=O)[nH]c1=S` [Example 332, 6-(2,6-dimethoxypyridin-3-yl)-1-(2-methoxyethyl)-2-thioxo-2,3-dihydropyrimidin-4(1H)-one]: the “MPO kinact/Ki” value is listed as 3270 1/s per M.

In the case of `NCCCn1c(-c2cccc3ncsc23)cc(=O)[nH]c1=S` [Example 72, 1-(3-aminopropyl)-6-(1,3-benzothiazol-7-yl)-2-thioxo-2,3-dihydropyrimidin-4(1H)-one trifluoroacetate], the “MPO kinact/Ki” value is listed as 3580 1/s per M. On to `COc1ccc(-c2cc(=O)[nH]c(=S)n2CC(=O)NCCN)c(OC)c1` [Example 241, N-(2-aminoethyl)-2-(6-(2,4-dimethoxyphenyl)-4-oxo-2-thioxo-3,4-dihydropyrimidin-1(2H)-yl)acetamide hydrochloride], for which the “MPO kinact/Ki” value is on record as 7060 1/s per M. Turning to `COCCn1c(-c2cc(C#N)ccc2OC)cc(=O)[nH]c1=S` [Example 171, 4-methoxy-3-[3-(2-methoxyethyl)-6-oxo-2-thioxo-1,2,3,6-tetrahydropyrimidin-4-yl]benzonitrile], the “MPO kinact/Ki” value is recorded as 8590 1/s per M. Same read-out and setting: under `COCCn1c(-c2ccccc2SC)cc(=O)[nH]c1=S` [Example 55, 1-(2-methoxyethyl)-6-[2-(methylthio)phenyl]-2-thioxo-2,3-dihydropyrimidin-4(1H)-one] stands 7740 1/s per M; under `COCCn1c(-c2cccn2C)cc(=O)[nH]c1=S` [Example 281, 1-(2-methoxyethyl)-6-(1-methyl-1H-pyrrol-2-yl)-2-thioxo-2,3-dihydropyrimidin-4(1H)-one], 1060 1/s per M. The same measure, in the same setting: under `COc1cc(OC)c(-c2cc(=O)[nH]c(=S)n2CC(N)=O)cc1C` [Example 146, 2-[6-(2,4-dimethoxy-5-methylphenyl)-4-oxo-2-thioxo-3,4-dihydropyrimidin-1(2H)-yl]acetamide] stands 8950 1/s per M; under `COc1cc(OC)cc(-c2cc(=O)[nH]c(=S)n2CCCN)c1` [Example 85, 1-(3-aminopropyl)-6-(3,5-dimethoxyphenyl)-2-thioxo-2,3-dihydropyrimidin-4(1H)-one hydrochloride], 10700 1/s per M. On to `O=c1cc(-c2cccc3c2OCC3)n(CCO)c(=S)[nH]1` [Example 16, 6-(2,3-dihydro-1-benzofuran-7-yl)-1-(2-hydroxyethyl)-2-thioxo-2,3-dihydropyrimidin-4(1H)-one], for which the “MPO kinact/Ki” value is 6510 1/s per M. Regarding `COc1cc(OC)c(-c2cc(=O)[nH]c(=S)n2CCCN)cc1C` [Example 105, 1-(3-aminopropyl)-6-(2,4-dimethoxy-5-methylphenyl)-2-thioxo-2,3-dihydropyrimidin-4(1H)-one hydrochloride], the “MPO kinact/Ki” value was 27300 1/s per M.

As to `COc1ccc(-c2cc(=O)[nH]c(=S)n2CCNc2ncc[nH]2)c(OC)c1` [Example 249, 6-(2,4-dimethoxyphenyl)-1-[2-(1H-imidazol-2-ylamino)ethyl]-2-thioxo-2,3-dihydropyrimidin-4(1H)-one], the “MPO kinact/Ki” value was 1050 1/s per M. Take `COc1ccc(-c2cc(=O)[nH]c(=S)n2C[C@@H](C)N)c(OC)c1` [Example 175, 1-[(2R)-2-aminopropyl]-6-(2,4-dimethoxyphenyl)-2-thioxo-2,3-dihydropyrimidin-4(1H)-one hydrochloride]: the “MPO kinact/Ki” value is recorded as 459 1/s per M.

As to `COc1ccc(Cl)cc1-c1cc(=O)[nH]c(=S)n1CCN` [Example 63, 1-(2-aminoethyl)-6-(5-chloro-2-methoxyphenyl)-2-thioxo-2,3-dihydropyrimidin-4(1H)-one hydrochloride], the “MPO kinact/Ki” value is listed as 12200 1/s per M. The same measure, in the same setting: the result for `COCCn1c(-c2cccc3[nH]ccc23)cc(=O)[nH]c1=S` [Example 304, 6-(1H-indol-4-yl)-1-(2-methoxyethyl)-2-thioxo-2,3-dihydropyrimidin-4(1H)-one] reads 6290 1/s per M; that for `COCCn1c(-c2c[nH]c3ccccc23)cc(=O)[nH]c1=S` [Example 33, 6-(1H-indol-3-yl)-1-(2-methoxyethyl)-2-thioxo-2,3-dihydropyrimidin-4(1H)-one], 4520 1/s per M; that for `COCCn1c(-c2cccc(OC)c2)cc(=O)[nH]c1=S` [Example 293, 1-(2-methoxyethyl)-6-(3-methoxyphenyl)-2-thioxo-2,3-dihydropyrimidin-4(1H)-one], 1810 1/s per M. `COc1ccc(-c2cc(=O)[nH]c(=S)n2C(C)C(N)=O)c(OC)c1` (stereo not drawn) [Example 188, 2-[6-(2,4-dimethoxyphenyl)-4-oxo-2-thioxo-3,4-dihydropyrimidin-1(2H)-yl]propanamide]: the “MPO kinact/Ki” value is listed as 2180 1/s per M.

Staying with this test, now noted: Table 1A, 2 μM H2O2, pH 7.4.
Regarding `CCNC(=N)NCCCn1c(-c2cc(Cl)ccc2OC)cc(=O)[nH]c1=S` [Example 449, 1-{3-[6-(5-chloro-2-methoxyphenyl)-4-oxo-2-thioxo-3,4-dihydropyrimidin-1(2H)-yl]propyl}-2-ethylguanidine], the “MPO kinact/Ki” value was 12000 1/s per M. Regarding `NCCNC(=O)Cn1c(-c2cc(F)ccc2OCCO)cc(=O)[nH]c1=S` [Example 405, N-(2-aminoethyl)-2-{6-[5-fluoro-2-(2-hydroxyethoxy)phenyl]-4-oxo-2-thioxo-3,4-dihydropyrimidin-1(2H)-yl}acetamide], the “MPO kinact/Ki” value was 5970 1/s per M. The same measure, in the same setting: under `COc1cc(OCCO)ccc1-c1cc(=O)[nH]c(=S)n1CC(N)=O` [Example 387, 2-{6-[4-(2-hydroxyethoxy)-2-methoxyphenyl]-4-oxo-2-thioxo-3,4-dihydropyrimidin-1(2H)-yl}acetamide] stands 4720 1/s per M; under `NC(=O)Cn1c(-c2cccc3ncccc23)cc(=O)[nH]c1=S` [Example 367, 2-[4-oxo-6-(quinolin-5-yl)-2-thioxo-3,4-dihydropyrimidin-1(2H)-yl]acetamide], 1340 1/s per M.
